Test results reported in PMC10703812, “Understanding the molecular mechanisms of odorant binding and activation of the human OR52 family” (Nature Communications, 2023).
Values joined by “and” are separate entries in the source; they are usually repeats but may differ in a detail not shown here. Equal values may be shown once.

Experiments:
Format in all cases: cell-based, human
OR52cs [1] = assay: cAMP signaling assay (cAMP sensor) in Hana3A cells
Description: For cAMP assay, CRE luciferase assay, and surface ELISA, the full-length OR52cs construct was cloned into the pcDNA3.1 vector. The Lucy signal sequence and FLAG peptide sequence were added to the N-terminus. Mutant constructs were generated by site-directed mutagenesis. For BRET assay, eYFP was added at the C-terminus of OR52cs with a GGGGS linker. Rluc was added to Gα for resonance partner (after L99 for Gαs, and I100 for Gαolf, respectively, with GGGGS linker back and forth). […]
(§1) Hana3A cells were seeded on 96-well white microplates and transfected with OR52cs or the corresponding mutants and cAMP sensor (Promega). The medium was exchanged with CO2-independent medium (Gibco) supplemented with 0.375 mg ml^−1 D-luciferin (Nanolight) 48 h after infection, and cells were incubated in the dark at 20 °C for 2 h. Basal luminescence was detected using a Tristar 2 LB 942 multimode reader (Berthold) until it reached a plateau. Subsequently, various concentrations of odorants and forskolin (Sigma-Aldrich) were added to each well, and luminescence was measured again. Data were analyzed and plotted using GraphPad Prism 9.4.1.

[2] = test system: OR52cs F14A / F96A / F170A; assay: cAMP signaling assay, mutant
Description: (§2) For cAMP assay, CRE luciferase assay, and surface ELISA, the full-length OR52cs construct was cloned into the pcDNA3.1 vector. The Lucy signal sequence and FLAG peptide sequence were added to the N-terminus. Mutant constructs were generated by site-directed mutagenesis. For BRET assay, eYFP was added at the C-terminus of OR52cs with a GGGGS linker. Rluc was added to Gα for resonance partner (after L99 for Gαs, and I100 for Gαolf, respectively, with GGGGS linker back and forth).
as §1

OR52cs G201V = assay: cAMP signaling assay, mutant; details: Fig. 3d
Description: as §2, §1

OR52cs H107A = assay: cAMP signaling assay, mutant
Description: as §2, §1

OR52cs H183A = assay: cAMP signaling assay, mutant; details: for cAMP response: Fig.3d source data, single experiments
Description: as §2, §1

OR52cs R265A = assay: cAMP signaling assay, mutant
Description: as §2, §1

OR52cs V158F/V209M = assay: cAMP signaling assay, mutant; details: for cAMP response: Fig.S8b source data, single experiments
Description: as §2, §1

OR52cs V158F = assay: cAMP signaling assay, mutant; details: for cAMP response: Fig.S8b source data, single experiments
Description: as §2, §1

OR52cs Y282A = assay: cAMP signaling assay, mutant; details: odorant 0.001 M; Fig.S13b source data, single experiments
Description: as §2, §1

OR52cs D212A = assay: cAMP signaling assay, mutant; parameters: scale not given here; details: Fig.S13b source data, single experiments
Description: as §2, §1

OR52cs-bRIL-ICL3 = assay: cAMP signaling assay, bRIL chimera; parameters: cAMP response: scale not given here; details: for cAMP response: Fig.S11a source data
Excerpt: For the structural study of apo state OR52cs, the chimeric construct of full-length OR52cs (1–313)[23] was designed to insert bRIL between A226 and L227 with a linker sequence derived from adenosine receptor A2a, as previously described. For purification of active state OR52cs, full-length OR52cs (1–313) was used. Each construct was subcloned into the pFastBac HT B vector with a Lucy signal sequence ([…])[17] and FLAG peptide at the N-terminus. Each construct also included an eGFP with 10xHis-tag, which was fused to the C-terminus of OR52cs with a HRV 3C protease cleavage sequence.
as §1

OR52cs [3] = assay: CRE luciferase assay in Hana3A cells; details: Fig.S7b, single experiments
Description: as §2
Hana3A cells were seeded on 96-well white microplates (SPL) and transfected with plasmids encoding CRE-luciferase, OR52cs or R265^6.59A mutant, Renilla luciferase, RTP1S, and Ric8b at a […] ratio 24 h after seeding. 48 h after infection, cells were treated with odorants and incubated at 37 °C for 4 h. Luminescence was measured using a Tristar 2 LB 942 multimode reader (Berthold). All values were divided by the Renilla luciferase activity to normalize the effect of cell confluence. All data were analyzed using GraphPad Prism 9.4.1.

[4] = odorant 0.001 M (1 mM OCA), Fig.S11a left, single experiments, listed as Octanotae

## CCCCCCCC(=O)O [Octanoate, octanoic acid]
OR52cs [1]; Supplementary Fig. 13b
  EC50: 7 µM
OR52cs [1]; Supplementary Table 3
  X-fold over OR52cs (relative fold of EC50): 1
OR52cs [1]; Supplementary Table 3, N=5
  EC50: 7.9 µM
  pEC50 ± SEM: 5.230 ± 0.107
OR52cs [1]; odorant 9.18274e-8 M, Fig.S11a source data, single experiments
  cAMP response: 5.085 and 3.831 and 4.775 and 5.026
OR52cs [1]; odorant 9.18274e-7 M, Fig.S11a source data, single experiments
  cAMP response: 14.274 and 13.5525 and 12.3756 and 13.817
OR52cs [1]; odorant 9.18274e-6 M, Fig.S11a source data, single experiments
  cAMP response: 55.4145 and 67.6331 and 64.1017 and 55.2862
OR52cs [1]; odorant 3.0303e-5 M, Fig.S11a source data, single experiments
  cAMP response: 86.9919 and 78.2813 and 84.5166 and 65.845
OR52cs [1]; odorant 0.0001 M, Fig.1a source data, single experiments
  cAMP response: 127.982 and 109.844 and 107.02 and 115.524 and 104.582
OR52cs [1]; odorant 0.0001 M, Fig.S11a source data, single experiments
  cAMP response: 98.5501 and 101.54 and 117.496 and 98.6522
OR52cs [1]; [4]
  cAMP response (raw signal) upon OCA treatment: 146668 and 160587 and 152997 and 131980
OR52cs [1]; odorant 0.001 M, Fig.1a source data, single experiments
  cAMP response: 103.349 and 98.3823 and 101.697 and 99.3544 and 97.2175
OR52cs [1]; odorant 0.001 M, Fig.S11a source data, single experiments
  cAMP response: 95.2215 and 104.803 and 111.594 and 89.2504
[2]; Fig. 2c
  cAMP response (in words): significantly reduced cAMP response
[2]; Supplementary Table 3
  X-fold over OR52cs (relative fold of EC50): 26.3
[2]; Supplementary Table 3, N=3
  EC50: 208 µM
OR52cs G201V
  downstream signaling (in words): loss of OCA signaling
OR52cs H107A; Fig. 3d
  downstream signaling (in words): significantly reduced downstream signaling
OR52cs H107A; Supplementary Table 3
  X-fold over OR52cs (relative fold of EC50): 23.7
OR52cs H107A; Supplementary Table 3, N=3
  EC50: 187 µM
OR52cs H107A; odorant 9.18274e-7 M, Fig.3d source data, single experiments
  cAMP response: 2.018 and 1.83 and 1.279
OR52cs H183A; Supplementary Table 3, N=3
  EC50: 41.4 µM
  pEC50 ± SEM: 4.154 ± 0.087
OR52cs H183A; odorant 0.0001 M
  cAMP response: 48.2985 and 50.8568 and 78.4687
OR52cs H183A; odorant 0.001 M
  cAMP response: 61.0348 and 75.0061 and 91.5473
OR52cs R265A; Fig. 3d
  downstream signaling (in words): complete loss of downstream signaling
OR52cs R265A; odorant 9.18274e-6 M, Fig.3d source data, single experiments
  cAMP response: 1.026 and 1.808
OR52cs V158F/V209M; Supplementary Fig. 8
  response / preference (in words): preference for OCA was maintained
OR52cs V158F/V209M; odorant 9.18274e-8 M
  cAMP response: 1.119% and 0.2182% and 0.3359% and 1.739%
OR52cs V158F/V209M; odorant 9.18274e-7 M
  cAMP response: 6.95% and 4.269% and 3.744% and 7.839% and 6.948%
OR52cs V158F/V209M; odorant 9.18274e-6 M
  cAMP response: 37.3813% and 30.814% and 31.4615% and 45.1116% and 40.3488%
OR52cs V158F/V209M; odorant 3.0303e-5 M
  cAMP response: 96.8852% and 89.0601% and 97.4121% and 90.3953% and 94.2682%
OR52cs V158F/V209M; odorant 0.0001 M
  cAMP response: 87.6893% and 101.186% and 102.533% and 86.5504% and 88.6049%
OR52cs V158F/V209M; odorant 0.001 M
  cAMP response: 79.2271% and 94.3185% and 104.414% and 103.193% and 74.9407%
OR52cs V158F; Supplementary Fig. 8
  downstream signal / selectivity (in words): greatly reduced the downstream signal
OR52cs V158F; odorant 9.18274e-8 M
  cAMP response: -0.2745% and -0.4519% and -0.2741%
OR52cs V158F; odorant 9.18274e-7 M
  cAMP response: -1.206% and -1.168% and -3.0916%
OR52cs V158F; odorant 9.18274e-6 M
  cAMP response: 1.8013% and 0.5178% and -1.853%
OR52cs V158F; odorant 3.0303e-5 M
  cAMP response: 11.8948% and 7.17% and 7.559%
OR52cs V158F; odorant 0.0001 M
  cAMP response: 32.9355% and 23.3075% and 28.8455%
OR52cs V158F; odorant 0.001 M
  cAMP response: 85.6572% and 61.8428% and 79.0275%
OR52cs Y282A
  cAMP response: 0.7944 and 0.7429 and 0.9514
OR52cs D212A; odorant 9.18274e-6 M
  cAMP response: 0.5276 and 0.521 and 1.015
OR52cs D212A; odorant 3.0303e-5 M
  cAMP response: 0.9753 and 0.9567 and 1.328
OR52cs D212A; odorant 0.0001 M
  cAMP response: 4.038 and 3.668 and 3.274
OR52cs D212A; odorant 0.001 M
  cAMP response: 42.8474 and 43.8072 and 40.1115
OR52cs-bRIL-ICL3; Supplementary Fig. 11
  OCA-induced activity (in words): neither basal activity nor OCA-induced activity
OR52cs-bRIL-ICL3; odorant 9.18274e-8 M, single experiments
  cAMP response: 2.864 and 3.4309 and 3.889 and 3.292
OR52cs-bRIL-ICL3; odorant 9.18274e-7 M, single experiments
  cAMP response: 3.793 and 3.523 and 3.621 and 3.789
OR52cs-bRIL-ICL3; odorant 9.18274e-6 M, single experiments
  cAMP response: 3.871 and 2.869 and 3.568 and 3.2862
OR52cs-bRIL-ICL3; odorant 3.0303e-5 M, single experiments
  cAMP response: 3.732 and 3.68 and 3.466 and 3.76
OR52cs-bRIL-ICL3; odorant 0.0001 M, single experiments
  cAMP response: 4.827 and 3.799 and 4.225 and 4.217
OR52cs-bRIL-ICL3; [4]
  cAMP response (raw signal) upon OCA treatment: 8475 and 9202 and 7849 and 10195
OR52cs-bRIL-ICL3; odorant 0.001 M, single experiments
  cAMP response: 5.645 and 5.075 and 5.021 and 7.052
OR52cs [3]; odorant 10 μM
  relative fold of CRE luciferase activity: 1.744 fold and 2.175 fold and 2.388 fold and 2.247 fold
OR52cs [3]; odorant 50 μM
  relative fold of CRE luciferase activity: 4.124 fold and 3.914 fold and 5.3918 fold and 4.986 fold
OR52cs [3]; odorant 100 μM
  relative fold of CRE luciferase activity: 4.893 fold and 4.461 fold and 6.103 fold and 6.04 fold
OR52cs [3]; odorant 250 μM
  relative fold of CRE luciferase activity: 5.851 fold and 4.875 fold and 6.831 fold and 6.812 fold
OR52cs [3]; odorant 500 μM
  relative fold of CRE luciferase activity: 8.532 fold and 7.359 fold and 7.746 fold and 7.343 fold
